Experimental data: patent US6468976B1 (AstraZeneca AB, priority 2001, dated 2002)

Tests used:
[1] = stability / hygroscopicity on standing at ambient conditions; assay type: physicochemical; conditions: for hygroscopicity / stability at room temperature and humidity: standard room temperature and humidity; for stability under ambient conditions: thermogravimetric analysis after 5 hours standing at ambient conditions
Procedure: The partially dehydrated material was allowed to stand for about 5 hours.

[2] = cited from earlier work
crystal size by SEM = assay type: physicochemical
Text: In contrast, the crystals of monohydrate form 2 are much smaller, and in a narrower size range, than those of monohydrate form 1, typically 5 μm or less in edge length.

SMILES | hygroscopicity / stability at room temperature and humidity [1] | stability under ambient conditions [1] | further results
NCCCC[C@H](N[C@@H](CCc1ccccc1)C(=O)O)C(=O)N1CCC[C@H]1C(=O)O.O [Preparation 3] | strongly hygroscopic | regained the lost weight and to have become a dihydrate | 
NCCCC[C@H](N[C@@H](CCc1ccccc1)C(=O)O)C(=O)N1CCC[C@H]1C(=O)O [lisinopril, 1-(N^2-[(S)-1-carboxy-3-phenylpropyl]-L-lysyl)-L-proline] |  |  | time to peak serum concentrations ([2]; following oral administration): ≤ 7 h; effective half-life of accumulation ([2]; on multiple dosing): about 12.6 hours
NCCCC[C@H](N[C@@H](CCc1ccccc1)C(=O)O)C(=O)N1CCC[C@H]1C(=O)O [monohydrate lisinopril form 1, 1-(N^2-[(S)-1-carboxy-3-phenylpropyl]-L-lysyl)-L-proline] | stable at a standard room temperature and humidity | stable under ambient conditions | crystal size (length / edge length) (crystal size by SEM; listed as monohydrate form 1): 50 to 500 μm
NCCCC[C@H](N[C@@H](CCc1ccccc1)C(=O)O)C(=O)N1CCC[C@H]1C(=O)O [monohydrate lisinopril form 2, 1-(N^2-[(S)-1-carboxy-3-phenylpropyl]-L-lysyl)-L-proline] |  |  | crystal size (length / edge length) (crystal size by SEM; listed as monohydrate form 2): ≤ 5 μm
